Assay results: patent US10064858B2, “Methods and compositions for treating bacterial infections with iron chelators” (THE UNITED STATES OF AMERICA, AS REPRESENTED BY THE …, priority 2011, dated 2018)
Converted amounts (≈) assume the structure as drawn. Like-named read-outs stand apart in the source and are kept apart here.

Assays:
Format in all cases: cell-based
[1] = test system: Acinetobacter baumannii strain 5711 (AB5711); test: Growth (OD600) of AB5711 in low iron media with chelators, with or without FeCl3; details: AB5711; low iron media; 100 μM or 200 μM chelator added after 4 hr; 24 hr
Procedure: Acinetobacter baumannii strain 5711 (AB5711) was grown overnight in LB media and sub-cultured into low iron media. The tested iron chelators were deferoxamine (DFO), deferiprone (DFP), 2,2-dipyridyl, and VK28. The iron chelators were added after 4 hr of growth.
Bacterial growth was estimated by absorption at OD600 every 4 hr for 24 hr. Optical density (OD) at 600 nm (OD600) as measured by a spectrophotometer is a widely used technique known by one skilled in the art to estimate the total number of bacterial cells present in a broth culture (CFU/ml). The exact amount of OD produced by a culture will depend on the concentration of cells present, the species and strain of microbe present, the growth conditions used, and the wavelength of the light being transmitted. Thus, the relationship between OD and cell concentrations will depend on the specific strain and growth conditions studied. For example, the OD600 of 1 for E. coli is about 1×10^9 CFU/ml.
This example provides further evidence that the removal of iron is responsible for bacterial growth inhibition. A. baumannii isolate 5711 was grown in low iron M9 media supplemented with 0 μM, 10 μM, or 100 μM FeCl3 with and without the addition of 200 μM VK28 following 4 hr of growth. Growth was estimated by absorbance at 600 nm every 4 hr for 24 hr.
This example provides further evidence that the removal of iron is responsible for bacterial growth inhibition. A. baumannii isolate 5711 was grown in low iron M9 media supplemented with 0 μM, 10 μM, 100 μM, or 1000 μM FeCl3 with and without the addition of 50 μg/ml of VK28 following 4 hr of growth. Growth was estimated by absorbance at 600 nm after 20 hours.

[2] = test system: E. coli; test: MIC in RPMI1640 media (Table 2)
Procedure: (§1) […] […] Tests were performed in triplicate. MIC of iron chelators were determined for noscomial ESKAPE pathogens.
(§2) This media is closer to the iron levels in the human body. MICs are in ug/mL.

[3] = test system: K. pneumonia; test: MIC in RPMI1640 media (Table 2); details: Klebsiella pneumoniae
Procedure: as §1, §2

[4] = test system: Acinetobacter baumannii; test: MIC in RPMI1640 media (Table 2)
Procedure: as §1, §2

[5] = test system: P. aeruginosa; test: MIC in RPMI1640 media (Table 2); details: Pseudomonas aeruginosa
Procedure: as §1, §2

[6] = test system: S. aureus; test: MIC, CLSI microdilution (Tables 1 and 6); details: Staphylococcus aureus
Procedure: (§3) The minimal inhibitory concentration (MIC) of non-toxic iron chelators was determined against standard strains of MDR bacteria and clinical isolates according to the guidelines of the Clinical and Laboratory Standards Institute (CLSI).
(§4) Individual MICs were determined following the microdilution method recommended by CLSI in cationic-adjusted Mueller-Hinton Broth (CAMHB), or M9 media. […] Tests were performed in triplicate. MIC of iron chelators were determined for noscomial ESKAPE pathogens.
(§5) MIC were determined in CAMHB media as described above in Example 8.

[7] = test system: E. coli; test: MIC, CLSI microdilution (Tables 1 and 6)
Procedure: as §3, §4, §5

[8] = test system: K. pneumonia; test: MIC, CLSI microdilution (Tables 1 and 6); details: Klebsiella pneumoniae
Procedure: as §3, §4, §5

[9] = test system: Acinetobacter baumannii; test: MIC, CLSI microdilution (Tables 1 and 6)
Procedure: as §3, §4, §5

[10] = test system: P. aeruginosa; test: MIC, CLSI microdilution (Tables 1 and 6); details: Pseudomonas aeruginosa
Procedure: as §3, §4, §5

[11] = test system: E. coli EC35218; test: Time-kill assay in CAMHB; details: ¾MIC Rifampicin alone; CAMHB
Procedure: Reductions in colony forming units (CFU)/mL were determined over time (time-kill assay) after exposure to VK28 and deferiprone (DFP), the two iron chelators that performed best in MIC assays when compared to controls. To better represent the iron content found in the human body, MIC and time-kill assays were also determined in minimal media and tissue culture media. Time-Kill assays were performed as previously described in G. P. Neupane et al., “In vitro time-kill activities of ciprofloxacin alone and in combination with the iron chelator deferasirox against Vibrio vulnificus,” European Journal of Clinical Microbiology and Infectious Diseases, 407-410 (2010); and R. L. White, et al., “Comparison of Three Different In Vitro Methods of Detecting synergy: Time-Kill, Checkerboard, and E test,” Journal of Antimicrobial Agents and Chemotherapy, 1914-1918 (1996). Initial inocula, for example 1×10^6 CFU/mL or 1×10^7 CFU/mL were challenged with iron chelator with and/or without an antibiotic. Cells were allowed to grow in CAMHB at 37° C. for 24 hours. Time-kill results were analyzed by determining the change in log 10 numbers of CFU/ml at 0, 6, and 24 h, compared to counts at 0 h. Antimicrobials were considered bactericidal at the lowest concentration that reduced the size of the original inoculum by >3 log 10 CFU/ml (99.9%) over each of the time periods and were considered bacteriostatic if the inoculum's size was reduced by 0 to <3 log 10 CFU/ml.
In this example, time-kill assays were performed as described in Example 9 against different multi-drug resistant bacteria, namely E. coli and MRSA.
In this example, time-kill assays were performed as described in Example 9 using ApoL1 as the iron chelator against two different E. coli strains. […] Time-kill results were analyzed by determining the change in log 10 numbers of CFU/mL at 6 and 24 hours.
In this example, time-kill assays were performed as described in Example 9 using Apo6619 as the iron chelator in combination with Rifampin against E. coli 35718. […] Time-kill results were analyzed by determining the change in log 10 numbers of CFU/mL at 0, 5 and 24 hours.

[12] = test system: E. coli strain EC35218; test: Growth (OD600) with chelator, Rifampin or both; details: CAMHB
Procedure: E. coli strain EC35218 was grown in CAMHB and challenged with 1.5×MIC compound 4 (Var) or 1.5×MIC Triapine (Tri) with or without 0.75×MIC Rifampin (Rif). Growth was estimated by absorbance at 600 nm (y-axis) at 0 or 24 hours.

[13] = test system: AB5075, a stain of A. baumannii (Ab); test: Development of rifampin resistance over 7 days (OD600); details: rifampin alone
Procedure: Development of antibiotic-resistant strains is an ongoing problem in the treatment of bacterial infections. In some embodiments, the present technology provides methods and compositions for reducing, inhibiting or preventing formation of antibiotic-resistant bacterial strains. In some embodiments, the iron chelator of the present technology is administered to a patient as a prophylactic before antibiotic treatment or during antibiotic treatment. In some embodiments, the iron chelator is added concurrently with an antibiotic.
Cultures of AB5075, a stain of A. baumannii (Ab), was cultured in the presence of Rifampin alone, the iron chelator ApoL1 alone or Rifampin combination with ApoL1 for 7 days.

[14] = test system: A. baumannii strain AB19606; test: Growth (OD600) with chelator, Rifampin or both; details: CAMHB
Procedure: A. baumannii strain AB19606 was grown in CAMHB and challenged with 1.5×MIC compound 4 (Var) or 1.5×MIC Triapine (Tri) with or without 0.75×MIC Rifampin (Rif). Growth was estimated by absorbance at 600 nm (y-axis) at 0 or 24 hours.

[15] = Escherichia coli, 35718, read-out: MIC of Iron Chelators
[16] = Escherichia coli, ATCC43888, ATCC 43888 (0157:H7), read-out: MIC of Iron Chelators
[17] = ATCC700603, ATCC 700603, read-out: MIC of Iron Chelators
[18] = BAA2146, BAA-2146, read-out: MIC of Iron Chelators
[19] = ATCC17978, ATCC 17978, read-out: MIC of Iron Chelators
[20] = ATCC19606, ATCC 19606, read-out: MIC of Iron Chelators
[21] = ATCC27853, ATCC 27853, read-out: MIC of Iron Chelators
[22] = PAO1, read-out: MIC of Iron Chelators
[23] = ATCC25923, ATCC 25923, Table 1, read-out: MIC of Iron Chelators
[24] = ATCC 43300 (MRSA), Table 1, read-out: MIC of Iron Chelators
[25] = Escherichia coli, ATCC35218, ATCC 35218, Table 1, read-out: MIC of Iron Chelators
[26] = Escherichia coli, ATCC43888, ATCC 43888 (0157:H7), Table 1, read-out: MIC of Iron Chelators
[27] = ATCC700603, ATCC 700603, Table 1, read-out: MIC of Iron Chelators
[28] = BAA2146, BAA-2146, Table 1, read-out: MIC of Iron Chelators
[29] = ATCC17978, ATCC 17978, Table 1, read-out: MIC of Iron Chelators
[30] = ATCC19606, ATCC 19606, Table 1, read-out: MIC of Iron Chelators
[31] = ATCC27853, ATCC 27853, Table 1, read-out: MIC of Iron Chelators
[32] = PAO1, Table 1, read-out: MIC of Iron Chelators
[33] = alone: 1.5×MIC chelator or 0.75×MIC Rifampin
[34] = 1.5×MIC chelator in combination with 0.75×MIC Rifampin

Compound	bacterial growth (OD600 growth curves) [1]	MIC [2, 15] [µg/mL]	MIC [2, 16] [µg/mL]	MIC [3, 17] [µg/mL]	MIC [3, 18] [µg/mL]	MIC [4, 19] [µg/mL]	MIC [4, 20] [µg/mL]	MIC [5, 21] [µg/mL]	MIC [5, 22] [µg/mL]	MIC [6, 23] [µg/mL]	MIC [6, 24] [µg/mL]	MIC [7, 25] [µg/mL]	MIC [7, 26] [µg/mL]	MIC [8, 27] [µg/mL]	MIC [8, 28] [µg/mL]	MIC [9, 29] [µg/mL]	MIC [9, 30] [µg/mL]	MIC [10, 31] [µg/mL]	MIC [10, 32] [µg/mL]	reduction of bacteria (absorbance at 600 nm, 24 hours) [12, 33]	other results
CC(=O)N(O)CCCCCNC(=O)CCC(=O)N(O)CCCCCNC(=O)CCC(=O)N(O)CCCCCN [DFO, deferoxamine]	little effect	> 500	> 500	> 500	> 500	> 500	> 500	> 500	> 500	> 500	> 500	> 500	> 500	> 500	> 500	> 500	> 500	> 500	> 500	–	–
c1ccc(-c2ccccn2)nc1 [DIP, 2,2-dipyridyl]	reduced bacterial growth to a significant extent	64	64	250	125	32	32	250	250	500	250	64	64	500	250	64	64	250	250	–	–
CO[C@H]1/C=C/O[C@@]2(C)Oc3c(C)c(O)c4c(O)c(c(/C=N/N5CCN(C)CC5)c(O)c4c3C2=O)NC(=O)/C(C)=C\C=C\[C@H](C)[C@H](O)[C@@H](C)[C@@H](O)[C@@H](C)[C@H](OC(C)=O)[C@@H]1C [Rifampin]	–	–	–	–	–	–	–	–	–	–	–	–	–	–	–	–	–	–	–	did not result in a reduction of bacteria	CFU/mL at 24 hours [11]: about 1×10^7 CFU/mL; time until antibiotic-resistant strains develop [13]: less than one day; reduction of bacteria (absorbance at 600 nm, 24 hours) [14, 33]: no reduction of bacteria
NC(=S)N/N=C/c1ncccc1N [Triapine, 3-aminopyridine-2-carboxaldehyde thiosemicarbazone]	–	–	–	–	–	–	–	–	–	–	–	–	–	–	–	–	–	–	–	did not result in a reduction of bacteria	reduction of bacteria (absorbance at 600 nm, 24 hours) [12, 34]: significant reduction in bacteria; MIC ([6]; SA43300, CAMHB, read-out: MIC): 125 µg/mL (≈ 640 µM); MIC ([7]; EC43888, CAMHB): 125 µg/mL (≈ 640 µM); MIC ([7]; Escherichia coli, EC35218, CAMHB, read-out: MIC): 125 µg/mL (≈ 640 µM); MIC ([8]; KP700603, CAMHB, read-out: MIC): 250 µg/mL (≈ 1280 µM); MIC ([9]; AB19606, CAMHB, read-out: MIC): 32 µg/mL (≈ 164 µM); MIC ([10]; PA27853, CAMHB, read-out: MIC): 250 µg/mL (≈ 1280 µM); reduction of bacteria (absorbance at 600 nm, 24 hours) [14, 34]: significant reduction in bacteria; reduction of bacteria (absorbance at 600 nm, 24 hours) [14, 33]: no reduction of bacteria
